Measurements published in patent US9877961B2, “Anticoagulant reversal agents” (PEROSPHERE INC., priority 2011, dated 2018).
Entries after “also recorded” stand apart in the source; their conditions may differ.

How the values were obtained:
[1] = system: edoxaban (LIXIANA®) anticoagulation; test: Rat tail transection bleeding assay, edoxaban; format: in vivo
Experimental: (§1) Rat tail bleeding assay or rat tail transection assay is an assay that measures blood loss, e.g., blood loss after drug administration. In one embodiment, where the effect of the compound of the invention (e.g., DAP) is being tested, at the Tmax of the anticoagulant, DAP is administered intravenously. After 20 minutes, rat tails are transected approximately 1 mm from the tip, placed in room temperature saline, and blood is collected for 30 minutes and weighed.
(§2) Three rats each were administered 2 mg of rivaroxaban. One rat received a sham reversal containing no DAP, the second received 2.5 mg of DAP, and the third received 12.5 mg DAP. A fourth fat received sham anticoagulant and reversal doses (“sham”). 20 minutes after the reversal dose, tails were transected 1 mm from the tip, placed in room temperature saline, and blood loss was collected for 30 minutes and then weighed.
Same procedures were used with 1.25 mg apixaban (ELIQUIS®) alone or in combination with 5 or 12.5 mg DAP; with 15.5 mg dabigatran etexilate (PRADAXA®) alone or in combination with 5 or 12.5 mg DAP; […]

[2] = Intravenous DAP tolerability in rats; format: in vivo, rat; conditions: DAP i.v. at 100 mg/kg, 250 mg/kg and 400 mg/kg in rats
[3] = system: argatroban anticoagulation; test: Argatroban dosed rats given IV DAP; format: in vivo, rat; conditions: 200× IV dose of DAP
[4] = system: CYP enzymes; test: CYP enzyme inhibition / substrate; format: in vitro ADME; conditions: data not shown
[5] = system: aPTT; test: Intravenous DAP alone, aPTT in the absence of anticoagulants; format: in vivo, rat; conditions: 0, 2, 10, 25, 50 or 100 mg DAP i.v., no anticoagulant
Experimental: 0, 2, 10, 25, 50 or 100 mg DAP were administered intravenously to male, weight matched CD rats and aPTT was measured.

[6] = Dynamic light scattering (DLS) association of DAP with unfractionated heparin; format: binding; conditions: DAP:heparin 100:1 mass ratio in water
Experimental: (§3) Dynamic light scattering (DLS) was used to assess association of 1 mg/ml unfractionated heparin and 1 mg/ml bemiparin (LMWH; HIBOR®), either alone or in combination with […] DAP in water (mass ratios of 100:1 of DAP to heparin or LMWH).

[7] = system: dabigatran etexilate (PRADAXA®) anticoagulation; test: Rat tail transection bleeding assay, dabigatran etexilate; format: in vivo
Experimental: as §1, §2
Same procedures were used with 1.25 mg apixaban (ELIQUIS®) alone or in combination with 5 or 12.5 mg DAP; […]; and with 5 mg edoxaban (LIXIANA®) alone or in combination with 12.5 mg DAP.

[8] = DLS association of DAP with LMWH (bemiparin); format: binding
Experimental: as §3
(§4) Rivaroxaban (XARELTO®) alone, DAP alone, and DAP:rivaroxaban combinations at mass ratios of 1:1 and 10:1 were added into an aqueous solution and analyzed by dynamic light scattering (DLS) to assess association of the DAP and rivaroxaban. A similar experiment was conducted on apixaban (ELIQUIS®) alone, DAP alone, and DAP:apixaban combinations at mass ratios of 1:1, 10:1 and 100:1. Fondaparinux (ARIXTRA®) alone, DAP alone, and fondaparinux:DAP combinations at mass ratios of 1:1, 10:1 and 100:1 were similarly tested. LMWH (bemiparin; HIBOR®), alone, DAP alone, and LMWH:DAP combinations at mass ratios of 1:1, 10:1, and 100:1 were also tested. The concentration of LMWH tested was 0.1 mg/ml. Therefore, at 1:1, 0.1 mg/ml DAP was tested, at 10:1, 1 mg/ml was tested, and at 100:1, 10 mg/ml DAP was tested.

[9] = Oral bioavailability of DAP in rats; format: in vivo, rat
[10] = system: dabigatran (PRADAXA®) anticoagulation; test: DAP reversal of dabigatran (PRADAXA®) anticoagulation in vivo, aPTT; design: species or system rat; conditions: 15.5 mg/kg PRADAXA®, 100 mg/kg DAP (FIG. 13)
[11] = system: dabigatran (PRADAXA®) anticoagulation; test: as above; design: species or system rat
Text: The activated partial thromboplastin time (aPTT) assay is an assay that measures how long it takes for the blood to clot. Blood samples are collected for direct measurement or in tubes with oxalate and citrate to arrest coagulation by calcium until the assay can be performed. In the assay, a phospholipid, an activator (silica, celite, kaolin, ellagic acid, etc.), and calcium are mixed into the plasma to induce coagulation. The assay measures the time until a thrombus (clot) forms.
A male albino rat, weighing 430 g, was administered 40 mg/kg of PRADAXA® (20 mg PRADAXA®; overdose of PRADAXA®) by oral gavage.
Approximately 2 hours into PRADAXA® treatment, 200 mg/kg DAP (100 mg DAP) was administered as an intravenous bolus injection. Approximately 2 hours later, the rat was administered a dose of 100 mg/kg of DAP (50 mg DAP). In another hour, the rat was administered another dose of 100 mg/kg of DAP (50 mg DAP). aPTT was measured throughout the course of the entire treatment.

[12] = molecular target: human ERG (Homo sapiens, UniProt Q12809); test: Human ERG binding; conditions: data not shown
[13] = DLS association of DAP with apixaban; format: binding
Experimental: as §4

[14] = Stability of DAP powder: storage at 4° C. and differential scanning calorimetry; format: physicochemical
Experimental: An acetate salt of DAP was prepared as described herein. As described in these examples, DAP solid or powder refers to the acetate salt, while DAP in solution refers to the free base as the salt ionizes in aqueous solution. As described in these examples, the DAP compound used was the compound of Formula VII.
The DAP powder was tested for thermal stability in two ways. DAP was stored at 4° C. for 7 months prior to use. Additionally, the DAP solid was tested by differential scanning calorimetry (DSC) by heating from −20° C. to 200° C., back to −20° C. and again to 200° C.

[15] = system: rivaroxaban anticoagulation; test: Rat tail transection bleeding assay, rivaroxaban; format: in vivo
Experimental: as §1, §2

[16] = rat tail transection, 30 minutes

Sequence of human ERG (Q12809 whole entry): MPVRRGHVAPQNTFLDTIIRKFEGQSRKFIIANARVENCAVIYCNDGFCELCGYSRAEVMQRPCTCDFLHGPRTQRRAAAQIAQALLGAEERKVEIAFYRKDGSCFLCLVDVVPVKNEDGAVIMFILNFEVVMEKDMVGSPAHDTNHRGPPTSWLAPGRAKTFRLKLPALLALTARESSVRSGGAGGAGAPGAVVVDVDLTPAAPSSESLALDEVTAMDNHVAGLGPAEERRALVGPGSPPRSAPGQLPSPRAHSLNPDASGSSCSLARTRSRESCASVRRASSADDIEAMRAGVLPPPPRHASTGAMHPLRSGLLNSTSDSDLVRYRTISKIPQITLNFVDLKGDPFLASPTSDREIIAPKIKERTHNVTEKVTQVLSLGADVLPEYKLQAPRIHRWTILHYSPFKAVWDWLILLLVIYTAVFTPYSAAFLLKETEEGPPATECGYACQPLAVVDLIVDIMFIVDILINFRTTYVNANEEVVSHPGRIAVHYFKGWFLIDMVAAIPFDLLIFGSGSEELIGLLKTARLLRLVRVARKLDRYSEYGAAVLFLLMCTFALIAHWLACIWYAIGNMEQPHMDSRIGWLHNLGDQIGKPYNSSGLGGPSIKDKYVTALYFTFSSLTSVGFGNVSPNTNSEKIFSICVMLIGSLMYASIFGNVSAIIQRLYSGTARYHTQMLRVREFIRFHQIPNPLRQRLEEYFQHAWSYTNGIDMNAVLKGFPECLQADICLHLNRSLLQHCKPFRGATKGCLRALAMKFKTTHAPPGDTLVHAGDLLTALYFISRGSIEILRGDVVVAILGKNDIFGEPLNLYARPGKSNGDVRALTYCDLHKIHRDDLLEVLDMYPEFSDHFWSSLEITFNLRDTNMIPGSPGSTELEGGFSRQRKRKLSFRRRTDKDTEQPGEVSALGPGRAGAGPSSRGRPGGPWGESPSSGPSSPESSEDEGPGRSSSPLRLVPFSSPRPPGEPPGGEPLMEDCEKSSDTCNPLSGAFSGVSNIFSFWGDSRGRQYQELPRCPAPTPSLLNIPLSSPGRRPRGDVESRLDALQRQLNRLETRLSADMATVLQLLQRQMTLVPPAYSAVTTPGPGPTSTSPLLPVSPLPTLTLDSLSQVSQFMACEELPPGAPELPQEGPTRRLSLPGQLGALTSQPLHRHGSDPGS

## N=C(N)NCCC[C@H](N)C(=O)NCCCN1CCN(CCCNC(=O)[C@@H](N)CCCNC(=N)N)CC1 (stereo in doubt) [DAP, 2-Amino-5-guanidino-pentanoic acid (3-{4-[3-(2-amino-5-guanidino-pentanoylamino)-propyl]-piperazin-1-yl}-propyl)-amide]
[1]; 1.25 mg edoxaban and 12.5 mg DAP, p<0.05 vs edoxaban only
  blood loss (blood collected over 30 minutes): reduced blood loss to sham dose levels
[1]; [16]
  reversal of edoxaban, blood loss vs anticoagulant only: reversed; also recorded: statistically significant reduction in blood loss
[2]
  adverse effects: no adverse effect
[3]
  anticoagulation of argatroban dosed rats after DAP: remained anticoagulated
[4]
  inhibition / substrate of CYP enzymes: did not inhibit or serve as a substrate
[5]
  influence of DAP on aPTT: did not influence aPTT
[6]
  physical association / binding by DLS: physically associated; also recorded: directly bound
[7]; 15 mg dabigatran etexilate and 12.5 mg DAP, p<0.01 vs dabigatran etexilate only
  blood loss (blood collected over 30 minutes): reduced blood loss to sham dose levels
[7]; [16]
  reversal of dabigatran, blood loss vs anticoagulant only: statistically significant reduction in blood loss
[8]
  physical association / binding by DLS: physically associated; also recorded: directly bound
[9]
  oral bioavailability: orally bioavailable
[10]
  time until aPTT returned to normal after DAP: ≤ 30 min
[11]; 2 hours after 100 mg DAP
  aPTT risen back after first DAP dose: 79 s
[11]; after 50 mg DAP
  aPTT risen after second DAP dose: 53 s
[11]; both times (first and second DAP dose)
  time until aPTT returned above baseline following DAP administration: ≤ 60 min
[11]; first dose, 100 mg DAP (200 mg/kg) i.v. bolus
  time until aPTT below baseline after DAP: ≤ 25 min
[11]; inferred from return of anti-coagulation in rats
  elimination half-life: short elimination half-life
[11]; intravenous bolus dose of DAP in rats
  time until PRADAXA®-induced anti-coagulation returned after DAP: 20 to 30 min
[11]; rats, aPTT
  reversal of oral dabigatran anticoagulation in vivo: reversed
[11]; second dose, 50 mg DAP (100 mg/kg)
  time until aPTT below baseline after DAP: ≤ 30 min
[11]; third dose, 100 mg/kg (50 mg) DAP i.v.
  time until aPTT dropped to baseline after DAP: ≤ 20 min
[12]
  human ERG binding: no human ERG binding
[13]
  binding by DLS: directly bound
[14]; 4° C.
  stability to storage as a lyophilized powder: more than one year
[14]; 4° C., powder (acetate salt)
  stability of DAP powder on storage: more than 12 months
[14]; heating from −20° C. to 200° C., twice
  thermal stability (DSC, stability to sterilization): survived repeated heating to 200 °C
[15]; 2 mg rivaroxaban and 12.5 mg DAP, p<0.05 vs rivaroxaban only
  blood loss (blood collected over 30 minutes): reduced blood loss to sham dose levels
[15]; [16]
  reversal of rivaroxaban, blood loss vs anticoagulant only: statistically significant reduction in blood loss
